Article PMC8868383, “Pharmacokinetics and Pharmacodynamics of Key Components of a Standardized Centella asiatica Product in Cognitively Impaired Older Adults: A Phase 1, Double-Blind, Randomized Clinical Trial” (Antioxidants, 2022)
Where “and” joins values, the source holds several entries; their conditions need not be identical. Equal entries are not always repeated. Where two headings read alike, the source gives them in different places.

Assays:
[1] = Plasma pharmacokinetics after single oral administration of CAP; conditions: for Cmax / Tmax / AUC(0-t) / half-life: human; for Cmax / Tmax / AUC(0-t) / half-life / Fold difference in Cmax between the 2 g and 4 g doses: plasma; for Time of larger secondary peak of plasma concentration-time curve / Time of preliminary (initial) peak of plasma concentration-time curve: mean profile, both doses (2 g and 4 g)
Description: (§1) This was a single-center, randomized, double blind, crossover study of two acute dosages (2 g and 4 g) of CAP. The participants were randomized using an arm equivalence design, by the OHSU Research Pharmacy, to receive each dose of CAP in a different order to prevent tolerance effects and ensure some data was available from each dose in the case of a dropout after the first dose. All study personnel were blinded to the participant’s randomization until all data analysis had been completed. All participants consumed both doses of CAP and attended two study visits a minimum of 14 days apart. They were placed on a low phytochemical diet for 48 h prior to and during each study visit in order to minimize interference from dietary TTs and CQAs and ensure that any such compounds identified in the plasma and urine were derived from C. asiatica. To ensure compliance, all participants completed a diet diary over the course of the 48 h. The participants fasted for a minimum of 10 h prior to each study visit, excluding water, to standardize gastrointestinal transit time and minimize delayed absorption due to the presence of food.
(§2) In the morning of each study visit, a baseline blood sample (20 mL) was collected via a peripheral intravenous catheter. […] Blood samples (10 mL) were collected via the peripheral catheter over a 10 h post-administration period at 0.25, 0.5, 0.75, 1, 1.5, 2, 2.5, 3, 4, 6, 8, and 10 h. Blood was transferred to a BD Vacutainer™ heparinized tube (Fisher Scientific) and centrifuged for 10 min at 10,000× g and 4 °C to isolate plasma. Plasma was frozen in 2mL aliquots and kept at −80 °C until analysis. […] All participants were asked to refrain from consuming food until 2 h after consumption of the study intervention at each visit to prevent delayed absorption due to food effects. Breakfast (at 2 h following CAP ingestion), lunch, dinner and snacks, all meeting the low phytochemical criteria, were provided by the OCTRI Bionutrition Unit. Urine samples were collected at baseline and over the 10 h post-administration period at each visit to measure renal excretion. All post-administration urinary output was combined in a 2 L urine collection container stored at 4 °C during the study visit. The total amount of post CAP administration urine was recorded, and a 50 mL aliquot was frozen at −80 °C for analysis. At the second visit, participants consumed the dose they were not randomized to receive at the first visit and underwent all study procedures previously described.
(§3) Sample preparation was performed using a protein precipitation method adapted from Cheng et al. [55] Duplicate plasma samples (50 µL) were combined with an ascorbic acid solution (1%; 10 µL) and incubated for 20 min at 37 °C using A. aerogenes sulfatase (2.5 µL; 0.025–0.05 units) and E. coli glucuronidase (2.5 µL; 12.5–125 units) dissolved in 50% aqueous glycerol to release the analytes from their sulfate and β-D-glucuronic acid esters. Proteins were precipitated by adding a crash solution (200 µL) consisting of 3:1 acetonitrile:methanol containing internal standards (20 µg/mL d3-isoferulic acid, d3-dihydroisoferulic acid, and chrysin or 50 µg/mL ^13C3-ferulic acid and ursolic acid), holding for 30 min at 4 °C and then centrifuged for 5 min at 10,000× g. The supernatant was filtered through a 0.22 µm Ultrafree MC-GV spin filter (Millipore Sigma) at 10,000× g for 5 min at 4 °C and then transferred to vials for analysis. For TT analysis, the concentration of organic solvent (the sample filtrate) to water in each sample was adjusted to a 60:40 ratio to optimize the peak shape, and for CQA analysis, the concentration of organic solvent to 1% aqueous formic acid in each sample was adjusted to a 90:10 ratio to optimize the peak shape.

[2] = Renal (urinary) excretion over 10 h after CAP administration; conditions: for Detection in 10 h post-administration urine / Predominant form (free or conjugated) in post-administration urine: 2 g and 4 g CAP; for Predominant form (free or conjugated) in post-administration urine: 10 h urine
Protocol: (§4) All participants were asked to refrain from consuming food until 2 h after consumption of the study intervention at each visit to prevent delayed absorption due to food effects. […] Urine samples were collected at baseline and over the 10 h post-administration period at each visit to measure renal excretion. All post-administration urinary output was combined in a 2 L urine collection container stored at 4 °C during the study visit. The total amount of post CAP administration urine was recorded, and a 50 mL aliquot was frozen at −80 °C for analysis. At the second visit, participants consumed the dose they were not randomized to receive at the first visit and underwent all study procedures previously described.
(§5) Calibration curves were prepared in baseline urine and treated with sham enzyme.
(§6) Plasma and urine samples collected at the participant’s screening visit were analyzed in parallel with the samples collected from each study visit to determine the efficacy of the low phytochemical diet in reducing analyte levels from dietary sources. The analysis of the prepared plasma and urine samples was performed at the OHSU Bioanalytical Shared Resource/Pharmacokinetics Core Laboratory (Portland, OR). […] The injection volume was 5 µL. Gradient elution was performed using a mobile phase of solvent A (water containing 0.05% v/v acetic acid) and solvent B (acetonitrile with 0.05% v/v acetic acid). The flow rate was 0.8 mL/min.

[3] = set-up: method as in PMID 19167274; conditions: dogs given encapsulated aqueous extracts of C. asiatica standardized to asiaticoside; cited from earlier work
[4] = Analyte levels in screening and baseline plasma and urine (low phytochemical diet check); conditions: for Screening Total, urine concentration / Screening Unconjugated, urine concentration: screening visit; for Screening Total, urine concentration / Screening Unconjugated, urine concentration / Plasma concentration at screening visit: uncontrolled diet; for Screening Total, urine concentration: with enzyme hydrolysis; for Screening Total, urine concentration / Screening Unconjugated, urine concentration / Baseline Total, urine concentration / Baseline Unconjugated, urine concentration: mean ± SEM, n = 4; for Screening Unconjugated, urine concentration: sham enzyme; for Plasma concentration at screening visit: before any CAP; for Baseline Total, urine concentration / Baseline Unconjugated, urine concentration: baseline on study visits after 48 h low phytochemical diet, before CAP
Description: as §1, §5
(§7) Plasma and urine samples collected at the participant’s screening visit were analyzed in parallel with the samples collected from each study visit to determine the efficacy of the low phytochemical diet in reducing analyte levels from dietary sources. The analysis of the prepared plasma and urine samples was performed at the OHSU Bioanalytical Shared Resource/Pharmacokinetics Core Laboratory (Portland, OR). For detection of TT glycosides and aglycones, an analytical method adapted from Nair et al. [56] was used. […] The injection volume was 20 µL. Gradient elution was performed using a mobile phase of solvent A (water containing 10 mM ammonium acetate and 0.02% ammonium hydroxide; pH 8.5) and solvent B (methanol). The flow rate was 0.42 mL/min. […] The injection volume was 5 µL. Gradient elution was performed using a mobile phase of solvent A (water containing 0.05% v/v acetic acid) and solvent B (acetonitrile with 0.05% v/v acetic acid). The flow rate was 0.8 mL/min.

[5] = set-up: method as in PMID 2329813, PMID 8020529; conditions: past human studies of TTFCA or asiatic acid alone, capsule form; cited from earlier work
clinical = conditions: human, in vivo, po
Description: as §1, §2, §3

[6] = human, in vivo
Description: as §1, §2, §3

[7] = in vivo
Protocol: as §4, §5, §6

[8] = in vivo; remark: listed apart in the source
Description: as §1, §5, §7

[9] = set-up: method as in PMID 33767223; conditions: two separate doses (250 mg and 500 mg), formulation with solubilizing agent; cited from earlier work

| Cmax ([1]; oral) | Tmax ([1]; oral) | AUC(0-t) ([1]; po, 2 g) | Cmax ([1]; po, 2 g) | Tmax ([1]; po, 2 g) | half-life ([1]; po, 2 g) | AUC(0-t) ([1]; po, 4 g) | Cmax ([1]; po, 4 g) | Tmax ([1]; po, 4 g) | half-life ([1]; po, 4 g) | Time of preliminary (initial) peak of plasma concentration-time curve [1] | Predominant form (free or conjugated) in post-administration urine [2] | Screening Total, urine concentration [4] | Screening Unconjugated, urine concentration [4] | Plasma concentration at screening visit [4] | Fold difference in Cmax between the 2 g and 4 g doses [1] | Baseline Total, urine concentration [4] | Compound | also measured |
| --- | --- | --- | --- | --- | --- | --- | --- | --- | --- | --- | --- | --- | --- | --- | --- | --- | --- | --- |
| 133 to 259 ng/mL | 2 h | 364 ± 114 ng·h/mL | 124 ± 29 ng/mL | 2 ± 0.6 h | 3.8 ± 1 h | 935 ± 178 ng·h/mL | 259 ± 24 ng/mL | 2 ± 0.6 h | 2.2 ± 0.5 h | 0.5 h | predominantly in the conjugated form | 0.5 ± 5 ng/mL | – | – | – | – | C[C@H]1[C@H](C)CC[C@]2(C(=O)O)CC[C@]3(C)C(=CC[C@@H]4[C@@]5(C)C[C@@H](O)[C@H](O)[C@@](C)(CO)[C@@H]5CC[C@]43C)[C@H]12 [AA, asiatic acid] | Cmax ([1]; oral, 2 g): 99 ng/mL; Tmax ([1]; oral, 2 g): 3 h; Cmax ([1]; oral, 4 g): 206 ng/mL; Tmax ([1]; oral, 4 g): 2.5 h; Time of larger secondary peak of plasma concentration-time curve [1]: 2.5 h and 2.5 to 3 h; Detection in 10 h post-administration urine [2]: very low concentrations; Time of plasma peak post consumption [3]: 2.7 h; Tmax post-ingestion [5]: 4.0 to 4.6 h |
| 1 to 2 ng/mL | 4 h | 3 ± 0.4 ng·h/mL | 1 ± 0.4 ng/mL | 3.25 ± 0.5 h | 4.8 ± 1.3 h | 6 ± 1 ng·h/mL | 2 ± 0.2 ng/mL | 3.5 ± 0.5 h | 1.1 ± 0.4 h | 2 h | predominantly conjugated form | 117 ± 64 ng/mL | 46 ± 36 ng/mL | 0.3 ± 0.2 ng/mL | two-fold | 9 ± 3 ng/mL | O=C(O)CCc1ccc(O)c(O)c1 [DHCA, dihydrocaffeic acid] | Time of larger secondary peak of plasma concentration-time curve [1]: 4 h; Baseline Unconjugated, urine concentration [4]: 0.9 ± 2 ng/mL |
| 11 to 20 ng/mL | 4 h | 42 ± 18 ng·h/mL | 11 ± 5 ng/mL | 3.4 ± 1 h | 4.5 ± 1.6 h | 77 ± 25 ng·h/mL | 20 ± 6 ng/mL | 3.5 ± 0.5 h | 2.5 ± 0.3 h | – | predominantly conjugated form | 939 ± 507 ng/mL | 179 ± 74 ng/mL | 6.6 ± 3.2 ng/mL | two-fold | 273 ± 131 ng/mL | COc1cc(CCC(=O)O)ccc1O [DHFA, dihydroferulic acid] | Baseline Unconjugated, urine concentration [4]: 8 ± 6 ng/mL |
| – | – | – | – | – | – | – | – | – | – | – | – | – | – | – | – | – | COc1cc(/C=C/C(=O)O)ccc1O [FA, ferulic acid] | Cmax, range over the 2 g and 4 g doses as stated in text [6]: 1 to 1.4 ng/mL; Tmax as stated in text [6]: 6 h; Predominant form (free or conjugated) in post-administration urine [7]: predominantly conjugated form; Plasma concentration at screening visit [8]: 1.3 ± 0.2 ng/mL; Screening Total, urine concentration [8]: 372 ± 78 ng/mL; Screening Unconjugated, urine concentration [8]: 7 ± 3 ng/mL |
| 32 to 42 ng/mL | 6 h | 100 ± 46 ng·h/mL | 32 ± 18 ng/mL | 6 ± 1.4 h | 2.3 ± 0.3 h | 189 ± 77 ng·h/mL | 42 ± 18 ng/mL | 5.5 ± 1.7 h | 1.8 ± 0.7 h | – | predominantly conjugated form | 91 ± 48 ng/mL | 23 ± 14 ng/mL | 49.6 ± 30.4 ng/mL | – | 2 ± 2 ng/mL | O=C(O)CCc1cccc(O)c1 [HPP, 3-(3-hydroxyphenyl)propionic acid] | – |
| 36 to 68 ng/mL | 2 h | 101 ± 16 ng·h/mL | 38 ± 3 ng/mL | 2 ± 0.5 h | 1.7 ± 0.5 h | 187 ± 48 ng·h/mL | 63 ± 10 ng/mL | 2 ± 0.5 h | 1.7 ± 0.9 h | 0.75 h | – | – | – | – | – | – | C[C@H]1[C@H](C)CC[C@]2(C(=O)O)CC[C@]3(C)C(=CC[C@@H]4[C@@]5(C)C[C@@H](O)[C@H](O)[C@@](C)(CO)[C@@H]5[C@H](O)C[C@]43C)[C@H]12 [MA, madecassic acid] | Cmax ([1]; oral, 2 g): 32 ng/mL; Tmax ([1]; oral, 2 g): 0.75 h; Cmax ([1]; oral, 4 g): 47 ng/mL; Tmax ([1]; oral, 4 g): 3 h |
| – | – | – | – | – | – | – | – | – | – | – | predominantly free form | – | – | – | – | – | C[C@H]1[C@H](C)CC[C@]2(C(=O)O[C@@H]3O[C@H](CO[C@@H]4O[C@H](CO)[C@@H](O[C@@H]5O[C@@H](C)[C@H](O)[C@@H](O)[C@H]5O)[C@H](O)[C@H]4O)[C@@H](O)[C@H](O)[C@H]3O)CC[C@]3(C)C(=CC[C@@H]4[C@@]5(C)C[C@@H](O)[C@H](O)[C@@](C)(CO)[C@@H]5[C@H](O)C[C@]43C)[C@H]12 [MS, madecassoside] | Plasma levels ([1]; all time points, 2 g and 4 g CAP): below the lower limit of quantitation (LLOQ); Plasma concentration after single administration of modified ECa233 [9]: 10 to 13 ng/mL; Detection in 10 h post-administration urine [2]: small amounts; Amount in the 10 h urine ([2]; after 2 g or 4 g CAP): 1 to 8 µg |

| Compound | Cmax ([1]; oral) | Tmax ([1]; oral) | AUC(0-t) ([1]; po, 2 g) | Cmax ([1]; po, 2 g) | Tmax ([1]; po, 2 g) | half-life ([1]; po, 2 g) | AUC(0-t) ([1]; po, 4 g) | Cmax ([1]; po, 4 g) | Tmax ([1]; po, 4 g) | half-life ([1]; po, 4 g) | Time of preliminary (initial) peak of plasma concentration-time curve [1] | Predominant form (free or conjugated) in post-administration urine [2] | Screening Total, urine concentration [4] | Screening Unconjugated, urine concentration [4] | Plasma concentration at screening visit [4] | Fold difference in Cmax between the 2 g and 4 g doses [1] | Baseline Total, urine concentration [4] | also measured |
| --- | --- | --- | --- | --- | --- | --- | --- | --- | --- | --- | --- | --- | --- | --- | --- | --- | --- | --- |
| O=C(O)/C=C/c1ccc(O)c(O)c1 [CA, caffeic acid] | 0.3 to 0.5 ng/mL | 6 h | 1 ± 1 ng·h/mL | – | – | 2.6 h | 3 ± 0.3 ng·h/mL | 1 ± 0.1 ng/mL | 4 ± 1 h | 3.5 ± 1.2 h | – | – | 260 ± 140 ng/mL | 184 ± 144 ng/mL | 0.8 ± 0.6 ng/mL | – | – | Cmax (clinical): 0.3 ± 0.2 ng/mL |
| COc1ccc(/C=C/C(=O)O)cc1O [IFA, isoferulic acid] | 0.9 to 2 ng/mL | 0.75 h | 5 ± 2 ng·h/mL | 0.9 ± 0.3 ng/mL | 1.3 ± 0.6 h | 8.8 ± 5.7 h | 8 ± 0.4 ng·h/mL | 2 ± 0.1 ng/mL | 1 ± 0.4 h | 2.9 ± 0.6 h | – | predominantly conjugated form | 472 ± 246 ng/mL | 4 ± 3 ng/mL | 2.3 ± 1.0 ng/mL | two-fold | 5 ± 2 ng/mL | – |
